Experimental data as given in US8629164B2, “Inhibitors of NF-κB” (Profectus Biosciences, Inc., priority 2009, dated 2014).

What was measured:
[1] = test system: PGE2 release from RAW264.7 cells; test: PGE2 release from LPS stimulated RAW264.7 cells; type: cell-based, mouse; conditions: Mus musculus, RAW264.7, RAW 264.7 cells
Experimental: (§1) Specifically, A and B show the effects of the compound of Example 1 on soluble PGE2 and Il-6 secretion from RAW264.7 cells stimulated by 1 μg/mL of LPS. The cells were treated with the indicated concentrations of the compound of Example 1 for 2 hours, and then LPS was added and incubation continued for 4 hours.
LPS stimulation induces the expression of COX-2 the enzyme responsible for prostaglandin E2.

[2] = test system: IL-6 release from RAW264.7 cells; test: IL-6 release from LPS stimulated RAW264.7 cells; type: cell-based, mouse; conditions: Mus musculus, RAW264.7, RAW 264.7 cells
Experimental: as §1, with “hours. […]” for “hours.”

p50 = target: T1, p50 (Homo sapiens, UniProt P19838); test: TransAM NF-κB Family DNA Binding ELISA, p50; conditions: for inhibition at 5 µM: read-out: p50 binding % inhibit. at 5 uM; for IC50: p50 binding IC50 (uM), cells without % sign
T1 sequence (P19838 1-433 limits assumed): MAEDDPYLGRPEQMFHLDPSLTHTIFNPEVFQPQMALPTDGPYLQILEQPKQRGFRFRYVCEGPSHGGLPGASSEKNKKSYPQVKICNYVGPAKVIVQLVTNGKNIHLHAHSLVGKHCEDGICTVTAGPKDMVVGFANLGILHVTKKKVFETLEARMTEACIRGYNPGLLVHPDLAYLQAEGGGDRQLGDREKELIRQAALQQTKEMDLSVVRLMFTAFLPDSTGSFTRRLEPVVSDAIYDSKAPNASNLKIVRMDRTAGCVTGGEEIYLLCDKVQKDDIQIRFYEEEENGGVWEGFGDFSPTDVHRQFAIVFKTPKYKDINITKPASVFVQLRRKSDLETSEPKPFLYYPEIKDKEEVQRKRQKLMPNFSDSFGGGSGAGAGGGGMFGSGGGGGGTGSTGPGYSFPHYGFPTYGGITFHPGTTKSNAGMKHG
Experimental: (§3) Treated samples were then transferred to 30 μL Complete Binding Buffer (with DTT) in microplate wells pre-coated with the NF-κB consensus oligonucleotide. […] The plate was incubated for 1 hour at room temperature with gentle shaking and then washed 3 times with 200 μL 1× Wash Buffer. NF-κB p65, p50, p52, RelB, or c-Rel subunits bound to the plate were detected with 100 μL of the primary antibody (diluted 1:1000 in 1× Antibody Buffer) specific for that subunit. The plate was incubated for 1 hour at room temperature and then washed 3 times with 200 μL 1× Wash Buffer. Next, 100 μL of a HRP conjugated goat anti-rabbit antibody (diluted 1:1,000 in 1× Antibody Buffer) was added to each well. The plate was incubated for 1 hour at room temperature and then washed 4 times with 200 μL 1× Wash Buffer. 100 μL of room temperature Developing Solution was added to each well. The reaction was allowed to develop for 2-10 minutes until a medium dark blue color developed (depending on the subunit activity in the lot of extract or lot of recombinant protein used) and then the reaction was stopped with 100 μL Stop Solution yielding a yellow color. Absorbance was recorded using a Becton-Dickinson DTX 880 Multimode Detector at 450 nm with a reference wavelength subtracted at 620 nm.

p52 = target: T2, p52 (Homo sapiens, UniProt Q00653); test: TransAM NF-κB Family DNA Binding ELISA, p52; conditions: for inhibition at 5 µM: read-out: p52 binding % inhibit. at 5 uM, at 5 uM; for IC50: p52 binding IC50 (uM), cells without % sign
T2 sequence (Q00653 1-454 limits assumed): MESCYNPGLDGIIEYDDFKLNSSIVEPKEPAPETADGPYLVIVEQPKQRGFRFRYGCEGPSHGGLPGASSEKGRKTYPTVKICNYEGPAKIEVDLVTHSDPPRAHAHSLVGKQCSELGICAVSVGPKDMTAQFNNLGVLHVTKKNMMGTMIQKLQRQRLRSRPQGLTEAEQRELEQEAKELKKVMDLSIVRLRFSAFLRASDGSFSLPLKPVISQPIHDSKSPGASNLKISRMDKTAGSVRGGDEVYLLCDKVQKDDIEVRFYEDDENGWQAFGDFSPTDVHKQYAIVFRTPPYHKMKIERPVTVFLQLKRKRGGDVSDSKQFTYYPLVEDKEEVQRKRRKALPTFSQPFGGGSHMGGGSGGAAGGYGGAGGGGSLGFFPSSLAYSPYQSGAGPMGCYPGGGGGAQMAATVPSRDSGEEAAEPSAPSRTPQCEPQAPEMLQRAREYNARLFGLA
Experimental: as §3

RelB = target: T3, RelB (Homo sapiens, UniProt Q01201); test: TransAM NF-κB Family DNA Binding ELISA, RelB; conditions: for inhibition at 5 µM: read-out: RelB binding % inhibit. at 5 uM, at 5 uM; for IC50: RelB binding IC50 (uM), cells without % sign
T3 sequence (Q01201 1-579): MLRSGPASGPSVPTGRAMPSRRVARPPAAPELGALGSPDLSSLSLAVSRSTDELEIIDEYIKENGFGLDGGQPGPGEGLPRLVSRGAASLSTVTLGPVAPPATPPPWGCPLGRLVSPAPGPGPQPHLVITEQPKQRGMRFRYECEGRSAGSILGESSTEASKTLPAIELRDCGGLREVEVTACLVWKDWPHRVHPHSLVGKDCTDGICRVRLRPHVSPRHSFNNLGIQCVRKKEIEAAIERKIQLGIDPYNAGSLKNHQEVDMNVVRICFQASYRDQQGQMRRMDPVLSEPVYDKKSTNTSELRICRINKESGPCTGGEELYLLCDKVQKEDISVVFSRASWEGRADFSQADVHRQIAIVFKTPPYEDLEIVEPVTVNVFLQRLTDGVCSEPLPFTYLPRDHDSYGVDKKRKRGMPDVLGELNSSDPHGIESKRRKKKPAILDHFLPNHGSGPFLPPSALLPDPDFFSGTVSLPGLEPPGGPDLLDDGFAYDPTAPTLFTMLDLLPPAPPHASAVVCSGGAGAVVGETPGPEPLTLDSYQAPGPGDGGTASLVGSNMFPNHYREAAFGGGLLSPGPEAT
T3 sequence (Q00653 1-454 partner limits assumed): T2 sequence (Q00653 1-454 limits assumed)
Experimental: as §3

c-Rel = target: T4, c-Rel (Homo sapiens, UniProt Q04864); test: TransAM NF-κB Family DNA Binding ELISA, c-Rel; conditions: for inhibition at 5 µM: read-out: c-Rel binding % inhibit. at 5 uM, at 5 uM; for IC50: c-Rel binding IC50 (uM), cells without % sign
T4 sequence (Q04864 2-619 limits assumed): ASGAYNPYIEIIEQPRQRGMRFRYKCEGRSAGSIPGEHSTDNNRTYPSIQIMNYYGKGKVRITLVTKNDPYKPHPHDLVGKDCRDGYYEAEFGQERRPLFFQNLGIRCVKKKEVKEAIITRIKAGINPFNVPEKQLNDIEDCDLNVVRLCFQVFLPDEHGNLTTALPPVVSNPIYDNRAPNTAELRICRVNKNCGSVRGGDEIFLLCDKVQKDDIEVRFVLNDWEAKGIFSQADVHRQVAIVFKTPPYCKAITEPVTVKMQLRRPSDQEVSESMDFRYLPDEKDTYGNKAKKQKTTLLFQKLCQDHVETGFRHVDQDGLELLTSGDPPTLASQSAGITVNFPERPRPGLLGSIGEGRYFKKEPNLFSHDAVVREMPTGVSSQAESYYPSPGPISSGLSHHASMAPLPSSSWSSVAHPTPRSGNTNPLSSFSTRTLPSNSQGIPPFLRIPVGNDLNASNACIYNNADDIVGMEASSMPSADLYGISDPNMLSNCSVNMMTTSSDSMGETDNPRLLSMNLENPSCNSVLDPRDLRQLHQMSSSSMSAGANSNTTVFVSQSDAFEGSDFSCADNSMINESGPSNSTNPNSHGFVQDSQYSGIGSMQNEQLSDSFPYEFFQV

NF-κB [3] = test: 293-cell pNF-κB-luc reporter assay, TNF-α induced; type: cell-based; conditions: HEK293 cells, NF-κB driven luciferase expression; read-out: 293/NFkB-luc EC50
Experimental: (§2) Inhibition of NF-κB in cells by the compound of Example 1. Two reporter cell assays were used to determine the ability of the compound of Example 1 to inhibit NE-KB driven transcription. The first assay was a 293-cell based assay with a stably integrated pNF-κB-luc reporter plasmid containing 3 NF-κB promoter elements. The second assay was a 293-cell based assay with a stably integrated pTRH1-NF-κB-dscGFP reporter containing 4 NF-κB promoter elements. Cells were treated with 0, 0.2, 1, 10, 20 and 40 μM of the compound of Example 1 for 2 hours then were induced with 20 ng/ml TNF-α for 18 hours. Following the induction, luminescence or fluorescence was quantified using a Beckman-Coulter 2300 plate reader. […] These values represent the median value generated from three independent experiments±the standard error. As a control, 0.5% DMSO treated and untreated cells were compared to verify that the Example 1 carrier had no effect on the expression of luciferase or in the readout of the assay. There was a slight decrease in the output from the assay in the DMSO treated population although it was not statistically significant. As a result of the controls, the decrease in activity in the drug treated samples was compared to the DMSO control sample.

NF-κB [4] = test: 293-cell pTRH1-NF-κB-dscGFP reporter assay, TNF-α induced; type: cell-based; conditions: Homo sapiens, HEK293, HEK293 cells, NF-κB driven GFP expression; read-out: NF-kB/293/GFP EC50
Experimental: as §2

p65 (RelA) = p65 (RelA) (Homo sapiens, UniProt Q04206); test: TransAM NF-κB Family DNA Binding ELISA, p65; conditions: p65 binding IC50 (uM), binding to NF-κB sites
Experimental: as §3

[5] = test system: collagen-induced arthritis; test: Mouse model of collagen-induced rheumatoid arthritis (CIA)
Source text: Male DBA mice developed arthritis by injecting bovine CII collagen in tails at day 1 and day 21.

Chain of p65 (RelA) (Q04206 whole entry): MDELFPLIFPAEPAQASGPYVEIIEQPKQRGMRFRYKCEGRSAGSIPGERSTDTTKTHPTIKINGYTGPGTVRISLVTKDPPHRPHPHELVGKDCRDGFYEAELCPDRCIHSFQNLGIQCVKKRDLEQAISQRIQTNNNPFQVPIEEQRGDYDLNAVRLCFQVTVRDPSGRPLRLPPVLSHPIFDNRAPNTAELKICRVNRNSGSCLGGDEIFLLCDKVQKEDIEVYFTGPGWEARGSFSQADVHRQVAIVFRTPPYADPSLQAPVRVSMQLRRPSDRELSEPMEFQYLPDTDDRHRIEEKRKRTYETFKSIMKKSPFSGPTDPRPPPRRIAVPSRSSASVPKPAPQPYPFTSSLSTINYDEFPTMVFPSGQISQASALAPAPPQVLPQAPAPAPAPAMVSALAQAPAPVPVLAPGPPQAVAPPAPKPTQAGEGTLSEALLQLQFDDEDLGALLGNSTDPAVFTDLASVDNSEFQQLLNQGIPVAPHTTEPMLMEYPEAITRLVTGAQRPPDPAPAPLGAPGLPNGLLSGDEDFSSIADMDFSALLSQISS

Compound	EC50 [1] [µM]	EC50 [2] [µM]	inhibition at 5 µM (p50) [%]	inhibition at 5 µM (p52) [%]	inhibition at 5 µM (RelB) [%]	inhibition at 5 µM (c-Rel) [%]	EC50 (NF-κB [3]) [µM]	EC50 (NF-κB [4]) [µM]	IC50 (p65 (RelA)) [µM]	IC50 (p50) [µM]	IC50 (p52) [µM]	IC50 (RelB) [µM]	IC50 (c-Rel) [µM]	anti-inflammation effects vs vehicle treated group ([5]; Example 2 15 mg/kg s.c. qd 21-35, etanercept 50 ug/mouse ip qd 21-35, P<0.05)	histological evaluation of joints ([5]; day 35)	myeloperoxidase activities ([5]; mouse, in vivo)
O=C(NC1=CC(=O)C2OC2C1O)c1nc2ccccc2nc1O (racemic) [Example 9, (±)-3-hydroxy-quinoxaline-2-carboxylic acid (2-hydroxy-5-oxo-7-oxa-bicyclo[4.1.0]hept-3-en-3-yl)-amide]	23.6	7.4	11	22	22	44	14	20	7.2	–	–	–	–	–	–	–
Cc1ccc(C(=O)NC2=CC(=O)C3OC3C2O)c(O)n1 (racemic) [Example 10, (±)-2-hydroxy-N-(2-hydroxy-5-oxo-7-oxa-bicyclo[4.1.0]hept-3-en-3-yl)-6-methyl-nicotinamide]	1.1	< 0.24	6	11	27	54	19	4.5	2.8	–	–	–	–	–	–	–
COc1c(C(=O)NC2=CC(=O)C3OC3C2O)ccc2cccnc12 (racemic) [Example 29, (±)-N-(2-hydroxy-5-oxo-7-oxabicyclo[4.1.0]hept-3-en-3-yl)-8-methoxyquinoline-7-carboxamide]	–	0.16	–	–	–	–	0.46	2.2	4.5	129	59	12	11	–	–	–
COc1nc2ccccc2cc1C(=O)NC1=CC(=O)C2OC2C1O (racemic) [Example 25, (±)-2-methoxy-quinoline-3-carboxylic acid (2-hydroxy-5-oxo-7-oxa-bicyclo[4.1.0]hept-3-en-3-yl)-amide]	–	0.13	–	–	–	–	4.1	0.84	1.1	1.2	4.7	0.65	0.49	–	–	–
O=C(NC1=CC(=O)C2OC2C1O)c1cnc2ccc(Cl)cc2c1O (racemic) [Example 5, (±)-6-chloro-4-hydroxy-quinoline-3-carboxylic acid-(2-hydroxy-5-oxo-7-oxa-bicyclo[4.1.0]hept-3-en-3-yl)-amide]	6.5	0.43	–	–	0	12	> 38	> 38	230	> 481	> 481	–	–	–	–	–
O=C(NC1=CC(=O)C2OC2C1O)c1cnc2c(C(F)(F)F)cccc2c1O (racemic) [Example 6, (±)-4-hydroxy-8-trifluoromethyl-quinoline-3-carboxylic acid-(2-hydroxy-5-oxo-7-oxa-bicyclo[4.1.0]hept-3-en-3-yl)-amide]	6.2	0.9	0	7	13	27	18	3.4	3.3	–	–	–	–	–	–	–
O=C(NC1=CC(=O)C2OC2C1O)c1cc(Cl)cnc1O (racemic) [Example 7, (±)-5-chloro-2-hydroxy-N-(2-hydroxy-5-oxo-7-oxa-bicyclo[4.1.0]hept-3-en-3-yl)-nicotinamide]	6.8	0.73	19	16	32	63	15	3.2	3.6	–	–	–	–	–	–	–
O=C(NC1=CC(=O)C2OC2C1O)c1cnc(-c2ccccc2)nc1O (racemic) [Example 8, (±)-4-hydroxy-2-phenylpyrimidine-5-carboxylic acid (2-hydroxy-5-oxo-7-oxa-bicyclo[4.1.0]hept-3-en-3-yl)-amide]	26.2	2.2	16	17	21	46	37	10	–	–	–	–	–	–	–	–
etanercept [reference compound]	–	–	–	–	–	–	–	–	–	–	–	–	–	statistal significant anti-inflammation effects	significant reduction of inflammation	concomitant reduction
